For one compound, Ki results are on record in BindingDB's records for doi:10.1021/jm00075a026 (Solvay Duphar, 1994).

pKi: −log10 of the molar value.

This test deals with T1, Glycine receptor subunit alpha-4 (Mus musculus, UniProt Q61603).
T1 sequence (Q61603 whole entry): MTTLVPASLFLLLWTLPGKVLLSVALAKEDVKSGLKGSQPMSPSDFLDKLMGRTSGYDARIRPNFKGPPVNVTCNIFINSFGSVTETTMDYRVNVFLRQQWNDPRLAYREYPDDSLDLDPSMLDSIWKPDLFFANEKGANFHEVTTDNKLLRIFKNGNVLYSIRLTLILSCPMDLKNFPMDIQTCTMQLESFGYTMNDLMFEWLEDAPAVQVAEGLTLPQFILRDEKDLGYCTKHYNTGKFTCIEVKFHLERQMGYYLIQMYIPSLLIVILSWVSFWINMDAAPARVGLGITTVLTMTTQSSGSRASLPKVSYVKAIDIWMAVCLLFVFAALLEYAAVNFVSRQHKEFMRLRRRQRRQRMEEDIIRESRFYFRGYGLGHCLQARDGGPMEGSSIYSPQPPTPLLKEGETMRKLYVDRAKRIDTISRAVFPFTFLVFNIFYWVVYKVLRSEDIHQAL
In words: ChEBML_219281. The protocol:
The binding affinity was measured on glycine receptor using [3H]- strychnine as radioligand.

In turn, `Cc1nccn1CC1CCc2c(c3ccccc3n2C)C1=O` (stereo unspecified) [NSC_68647] gave a pKi of under 5.00.
